Results: patent US9139577B2, “Sulfoximine substituted quinazolines for pharmaceutical compositions” (Boehringer Ingelheim International GmbH, priority 2013, dated 2015)

What was measured:
MNK2a = MNK2a (Homo sapiens (Human), UniProt Q9HBH9); test: MNK2a in vitro kinase assay (Assay 2), ADP-Glo; assay type: biochemical; details: read-out: MNK2 IC50
MNK1 = MNK1 (Homo sapiens (Human), UniProt Q9BUB5); test: MNK1 in vitro kinase assay (Assay 3), Z'-LYTE; assay type: biochemical; details: for inhibition at 1 µM: compound concentration of 1 μM, read-out: MNK1 % INH
Sequence of MNK1 (Q9BUB5 other isoform, or with tags, fused parts or gaps): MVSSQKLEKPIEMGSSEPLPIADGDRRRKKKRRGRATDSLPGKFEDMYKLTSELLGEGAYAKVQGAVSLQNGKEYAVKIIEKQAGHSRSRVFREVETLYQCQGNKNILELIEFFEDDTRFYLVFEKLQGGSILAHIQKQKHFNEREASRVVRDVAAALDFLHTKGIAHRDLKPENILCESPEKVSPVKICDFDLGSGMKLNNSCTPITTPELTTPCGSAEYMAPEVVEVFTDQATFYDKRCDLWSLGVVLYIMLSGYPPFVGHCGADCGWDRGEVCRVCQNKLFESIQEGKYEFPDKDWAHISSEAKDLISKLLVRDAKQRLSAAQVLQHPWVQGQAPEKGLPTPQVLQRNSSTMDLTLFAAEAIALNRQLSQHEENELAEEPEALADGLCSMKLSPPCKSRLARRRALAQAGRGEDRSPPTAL
From the text: C. MNK1 In vitro Kinase Assay (Assay 3)
MNK1 Data can be obtained from the MNK1 Z′-LYTE® assay. The MNK1 Z′-LYTE® screening protocol and assay conditions are also described on www.invitrogen.com.
The assay is described as follows:
The Z′-LYTE® biochemical assay employs a fluorescence-based, coupled-enzyme format and is based on the differential sensitivity of phosphorylated and non-phosphorylated peptides to proteolytic cleavage. The peptide substrate is labeled with two fluorophores—one at each end—that make up a FRET pair.
In the primary reaction, the kinase transfers the gamma-phosphate of ATP to a single tyrosine, serine or threonine residue in a synthetic FRET-peptide. In the secondary reaction, a site-specific protease recognizes and cleaves non-phosphorylated FRET-peptides. Phosphorylation of FRET-peptides suppresses cleavage by the Development Reagent. Cleavage disrupts FRET between the donor (i.e., coumarin) and acceptor (i.e., fluorescein) fluorophores on the FRET-peptide, whereas uncleaved, phosphorylated FRET-peptides maintain FRET. A ratiometric method, which calculates the ratio (the Emission Ratio) of donor emission to acceptor emission after excitation of the donor fluorophore at 400 nm, is used to quantitate reaction progress, as shown in the equation below.
ASSAY SETUP: The inhibition of kinase activity of MNK1a was assessed using pre-activated GST-MNK1a. The 2×MKNK1 (MNK1) mixture is prepared in 50 mM HEPES pH 7.5, 0.01% BRIJ-35, 10 mM MgCl2, 4 mM MnCl2, 1 mM EGTA, 2 mM DTT.
The Test Compounds are screened in 1% DMSO (final) in the well.
All Peptide/Kinase Mixtures are diluted to a 2× working concentration in the MNK1 Kinase Buffer.
All ATP Solutions are diluted to a 4× working concentration in Kinase Buffer (50 mM HEPES pH 7.5, 0.01% BRIJ-35, 10 mM MgCl2, 1 mM EGTA).
Development Reagent Solution:
The Development Reagent is diluted in Development Buffer
1. 2.5 μL—4× Test Compound
2. 5 μL—2× Peptide/Kinase Mixture
5. 60-minute Kinase Reaction incubation at room temperature
6. 5 μl—Development Reagent Solution
8. 60-minute Development Reaction incubation at room temperature
9. Read on fluorescence plate reader and analyze the data
The following equations are used for each set of data points: […]
Correction for Background Fluorescence: FlSample-FlTCFl Ctl
% Phosphorylation (% Phos): 1−((Emission Ratio×F100%)−C100%)/((C0%−C100%)+[Emission Ratio×(F100%−F0%)])*100%
% Inhibition: 1−(% PhosSample/% Phos0% Inhibition Ctl)*100
Fl=Fluorescence Intensity
C100%=Average Coumarin emission signal of the 100% Phos. Control
C0%=Average Coumarin emission signal of the 0% Phos. Control
F100%=Average Fluorescein emission signal of the 100% Phos. Control
F0%=Average Fluorescein emission signal of the 0% Phos. Control
SelectScreen® Kinase Profiling Service uses XLfit from IDBS.

Sequence of MNK2a (Q9HBH9 whole entry): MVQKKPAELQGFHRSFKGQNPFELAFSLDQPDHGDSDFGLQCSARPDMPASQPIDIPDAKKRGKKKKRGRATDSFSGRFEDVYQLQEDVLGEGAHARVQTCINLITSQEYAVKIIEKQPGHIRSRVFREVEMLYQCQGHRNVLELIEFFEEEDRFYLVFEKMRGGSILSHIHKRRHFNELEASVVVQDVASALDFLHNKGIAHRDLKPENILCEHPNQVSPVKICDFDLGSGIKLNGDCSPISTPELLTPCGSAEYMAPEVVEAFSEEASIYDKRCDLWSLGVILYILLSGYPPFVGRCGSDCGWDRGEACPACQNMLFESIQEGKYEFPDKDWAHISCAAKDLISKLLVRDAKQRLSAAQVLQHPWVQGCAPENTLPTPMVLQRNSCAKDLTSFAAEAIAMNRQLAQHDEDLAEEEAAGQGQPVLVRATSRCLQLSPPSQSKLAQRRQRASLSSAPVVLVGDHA

Compound | IC50 (MNK2a) [nM] | inhibition at 1 µM (MNK1) [%] | IC50 (MNK1) [nM]
Cc1cc(N=S(C)(C)=O)cc2ncnc(Nc3ccc(F)cc3O[C@H](C)CN)c12 [Example 3.018] | 1 | 92 | –
O=S1(=Nc2cc(C(F)(F)F)c3c(Nc4ccc(F)cc4OC(CF)CF)ncnc3c2)CCCC1 [Example 1.004] | 3 | 79 | –
Cc1cc([C@@H](C)Oc2cc(F)ccc2Nc2ncnc3cc(N=S(C)(C)=O)cc(C)c23)on1 [Example 2.008] | 1 | – | 25
Cc1cc(N=S(C)(C)=O)cc2ncnc(Nc3ccc(F)cc3OC(C)CF)c12 (stereo not drawn) [Example 1.015] | 54 | 100 | –
CCC(C)Oc1cc(F)ccc1Nc1ncnc2cc(N=S(C)(C)=O)cc(C)c12 (stereo not drawn) [Example 3.042] | 15 | 78 | –
Cc1cc(N=S(C)(C)=O)cc2ncnc(Nc3ccc(F)cc3OCC3(C(F)(F)F)CC3)c12 [Example 3.027] | 2 | 98 | –
Cc1cc(N=S(C)(C)=O)cc2ncnc(Nc3cccnc3OC(C)C)c12 [Example 2.017] | 2 | 90 | –
Cc1cc(N=S(C)(C)=O)cc2ncnc(Nc3ccc(F)cc3OCC3CC3(F)F)c12 (stereo not drawn) [Example 3.008] | 5 | 89 | –
Cc1cc(N=S(C)(C)=O)cc2ncnc(Nc3ccc(F)cc3OC(C)c3ccncc3)c12 (stereo not drawn) [Example 3.046] | 2 | 97 | –
Cc1cc(N=S(C)(C)=O)cc2ncnc(Nc3ccc(F)cc3OC(C)C(C)(C)C#N)c12 (stereo not drawn) [Example 2.010] | 11 | 76 | –
Cc1cc([C@@H](C)Oc2ncccc2Nc2ncnc3cc(N=S(C)(C)=O)cc(Cl)c23)on1 [Example 1.016] | 1 | – | 53
CS(C)(=O)=Nc1cc(F)c2c(Nc3ccc(F)cc3OC(CF)CF)ncnc2c1 [Example 1.018] | 6 | 93 | –
Cc1cc(C(C)Oc2cc(F)ccc2Nc2ncnc3cc(N=S(C)(C)=O)cc(F)c23)on1 (stereo not drawn) [Example 2.002] | 6 | 94 | –
C[C@@H](Oc1cc(F)ccc1Nc1ncnc2cc(N=S3(=O)CCCC3)cc(F)c12)C(=O)NCC(F)(F)F [Example 3.047] | 1 | 96 | –
Cc1cc(N=S(C)(C)=O)cc2ncnc(Nc3ccc(F)cc3OC[C@H]3CCC(=O)N3)c12 [Example 3.038] | 2 | 86 | –
Cc1cc(N=S(C)(C)=O)cc2ncnc(Nc3ccc(F)cc3OC(C)c3cccnc3)c12 (stereo not drawn) [Example 3.007] | 9 | 96 | –
Cc1cc(N=S(C)(C)=O)cc2ncnc(Nc3ccc(F)cc3OCC3CCO3)c12 (stereo not drawn) [Example 3.013] | 8 | 88 | –
Cc1cc(N=S2(=O)CCCC2)cc2ncnc(Nc3ccc(F)cc3OC(C)C(C)(C)O)c12 (stereo not drawn) [Example 2.001] | 5 | – | 228
CCOC(Oc1cc(F)ccc1Nc1ncnc2cc(N=S(C)(C)=O)cc(C)c12)C(F)(F)F (stereo not drawn) [Example 1.023] | 8 | 65 | –
Cc1cc(N=S(C)(C)=O)cc2ncnc(Nc3ccc(F)cc3OCC3COCCO3)c12 (stereo not drawn) [Example 3.044] | 63 | 49 | –
CS(C)(=O)=Nc1cc(C(F)(F)F)c2c(Nc3ccc(F)cc3OC(CF)CF)ncnc2c1 [Example 1.002] | 6 | 59 | –
Cc1cc(N=S(C)(C)=O)cc2ncnc(Nc3ccc(F)cc3OC[C@H]3CNC(=O)O3)c12 [Example 3.003] | 2 | 73 | –
Cc1cc(N=S2(=O)CCCC2)cc2ncnc(Nc3ccc(F)cc3OCc3ccccc3)c12 [Example 2.004] | 6 | 75 | –
CC(CF)Oc1cc(F)ccc1Nc1ncnc2cc(N=S(C)(C)=O)cc(F)c12 (stereo not drawn) [Example 1.006] | 5 | 96 | –
C[C@@H](Oc1cc(F)ccc1Nc1ncnc2cc(N=S(C)(C)=O)cc(Cl)c12)C(F)(F)F [Example 1.003] | 1 | 95 | –
CCOC(Oc1ncccc1Nc1ncnc2cc(N=S(C)(C)=O)cc(C)c12)C(F)(F)F (stereo not drawn) [Example 1.008] | 8 | 63 | –

Results, then the compound that gave them:

IC50 (MNK2a) [nM] | inhibition at 1 µM (MNK1) [%] | IC50 (MNK1) [nM] | Compound
3 | 93 | – | Cc1cc(N=S(C)(C)=O)cc2ncnc(Nc3ccc(F)cc3OC(C)C#N)c12 (stereo not drawn) [Example 7.005]
13 | 70 | – | Cc1cc(N=S(C)(C)=O)cc2ncnc(Nc3ccc(F)cc3O[C@H](C)C(=O)N(C)CCO)c12 [Example 4.061]
2 | 102 | – | COc1cc(N=S(C)(C)=O)cc2ncnc(Nc3ccc(F)cc3OC(C)c3cc(C)no3)c12 (stereo not drawn) [Example 7.003]
7 | 88 | – | CC(=O)NC[C@H](C)Oc1cc(F)ccc1Nc1ncnc2cc(N=S(C)(C)=O)cc(C)c12 [Example 5.002]
9 | 90 | – | Cc1cc(N=S2(=O)CCCC2)cc2ncnc(Nc3ccc(F)cc3O[C@H](C)C(=O)N[C@@H]3CCC[C@@H]3O)c12 [Example 4.075]
2 | 99 | – | Cc1cc(N=S(C)(C)=O)cc2ncnc(Nc3ccc(F)cc3O[C@H](C)C(=O)NC3COC3)c12 [Example 4.009]
5 | 82 | – | Cc1cc(N=S2(=O)CCCC2)cc2ncnc(Nc3ccc(F)cc3O[C@H](C)C(=O)N(C)C)c12 [Example 4.051]
3 | 94 | – | Cc1cc(N=S2(=O)CCCC2)cc2ncnc(Nc3ccc(F)cc3O[C@H](C)C(=O)N(C)CC(C)C)c12 [Example 4.052]
13 | 88 | – | Cc1cc(N=S(C)(C)=O)cc2ncnc(Nc3ccc(F)cc3O[C@H](C)C(=O)N3CCCCC3)c12 [Example 4.062]
1 | – | 38 | Cc1cc(N=S2(=O)CCCC2)cc2ncnc(Nc3ccc(F)cc3O[C@H](C)C(=O)NCC(F)(F)F)c12 [Example 4.074]
4 | 97 | – | COCC(=O)N1CCS(=O)(=Nc2cc(C)c3c(Nc4ccc(F)cc4O[C@H](C)c4cc(C)no4)ncnc3c2)CC1 [Example 5.007]
8 | 78 | – | CCN(CC)C(=O)[C@@H](C)Oc1cc(F)ccc1Nc1ncnc2cc(N=S(C)(C)=O)cc(C)c12 [Example 4.031]
1 | – | 55 | Cc1cc(N=S(C)(C)=O)cc2ncnc(Nc3ccc(F)cc3O[C@H](C)C(=O)NCC(F)(F)F)c12 [Example 4.071]
7 | 82 | – | COCCN(C)C(=O)[C@@H](C)Oc1cc(F)ccc1Nc1ncnc2cc(N=S3(=O)CCCC3)cc(C)c12 [Example 4.041]
2 | 102 | – | Cc1cc(N=S2(=O)CCCC2)cc2ncnc(Nc3ccc(F)cc3O[C@H](C)C(=O)N[C@H]3CCOC3)c12 [Example 4.057]
2 | 99 | – | Cc1cc(N=S(C)(C)=O)cc2ncnc(Nc3ccc(F)cc3O[C@H](C)C(=O)NC(C)C)c12 [Example 4.060]
3 | 96 | – | Cc1cc(N=S2(=O)CCCC2)cc2ncnc(Nc3ccc(F)cc3O[C@H](C)C(=O)NC3CCOCC3)c12 [Example 4.014]
1 | 98 | – | Cc1cc([C@@H](C)Oc2cc(F)ccc2Nc2ncnc3cc(N=S4(=O)CCN(C)CC4)cc(C)c23)on1 [Example 7.001]
3 | 96 | – | CC#CCNC(=O)[C@@H](C)Oc1cc(F)ccc1Nc1ncnc2cc(N=S3(=O)CCCC3)cc(C)c12 [Example 4.044]
2 | 98 | – | CCC(C)NC(=O)[C@@H](C)Oc1cc(F)ccc1Nc1ncnc2cc(N=S(C)(C)=O)cc(C)c12 (stereo partly drawn) [Example 4.048]
12 | 92 | – | COCC(C)NC(=O)[C@@H](C)Oc1cc(F)ccc1Nc1ncnc2cc(N=S(C)(C)=O)cc(C)c12 (stereo partly drawn) [Example 4.021]
8 | 82 | – | Cc1cc(N=S(C)(C)=O)cc2ncnc(Nc3ccc(F)cc3O[C@H](C)C(=O)N(C)C(C)C)c12 [Example 4.064]
